Results on twelve compounds are retold here after PubChem BioAssay (NCI).

Values joined by “and” are separate entries in the source; they are usually repeats but may differ in a detail not shown here. Equal entries are not always repeated.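 Each compound was tested at five concentrations against cells in 96-well plates for 48 hours. GI50 marks 50% less growth. The concentration for full growth arrest is given as TGI.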

Some test systems named below: 786-0 renal; ACHN renal; CCRF-CEM leukemia; DMS 114 small cell lung; EKVX NSCLC; HCT-116 colon; KM12 colon; OVCAR-4 ovarian; SK-MEL-28 melanoma; SNB-75 CNS.
Common to all, as to experiment: growth of human tumour cells (NCI), 48 h

For `Cc1ccc(C2=C(c3ccccc3)C(Br)(c3ccccc3)C(c3ccccc3)=C2c2ccc(C)cc2)cc1`, the TGI in the assay on 786-0 renal, in the assay with ACHN renal, in the assay with CCRF-CEM leukemia, in the assay with DMS 114 small cell lung, in the assay with EKVX NSCLC and in the assay on HCT-116 colon was > 100 µM in each case. In addition, the TGI in the assay with KM12 colon, in the assay on OVCAR-4 ovarian, with SK-MEL-28 melanoma and in the assay on SNB-75 CNS was > 100 µM each time.
Turning to `CC12CC3CC(C1)CC(N=[N+]=[N-])(C3)C2`, the TGI in the assay with 786-0 renal, in the assay with ACHN renal, with CCRF-CEM leukemia, with DMS 114 small cell lung, in the assay on EKVX NSCLC and in the assay with HCT-116 colon was > 100 µM each time. The TGI with KM12 colon, in the assay with OVCAR-4 ovarian, with SK-MEL-28 melanoma and with SNB-75 CNS was > 100 µM in each case.
Turning to `CC(C)(c1ccc(OC#N)cc1)c1ccc(OC#N)cc1`, the TGI with 786-0 renal is > 100 µM; with ACHN renal, > 100 µM; with CCRF-CEM leukemia, > 73.7 µM; in the assay on DMS 114 small cell lung, > 56.9 µM; in the assay on EKVX NSCLC it was > 100 µM; with HCT-116 colon, > 61 µM. Further, the TGI was > 100 µM with KM12 colon, > 100 µM in the assay on OVCAR-4 ovarian, > 100 µM in the assay on SK-MEL-28 melanoma and > 94.7 µM in the assay with SNB-75 CNS.
As to `COc1cc2cccc(NC(=O)c3cc(OC)c(OC)c(OC)c3Br)c2cc1OC`, the TGI is > 100 µM with 786-0 renal; 75.5 µM in the assay with ACHN renal; 21.5 µM with CCRF-CEM leukemia; 12.8 µM in the assay with DMS 114 small cell lung; 75.9 µM in the assay with EKVX NSCLC; 36.6 µM in the assay on HCT-116 colon. The TGI in the assay on KM12 colon was 27.5 µM; in the assay on OVCAR-4 ovarian, 34.3 µM; in the assay with SK-MEL-28 melanoma it was 41.8 µM; in the assay on SNB-75 CNS it was 74.8 µM.
`O=C1C[C@@H]2CCCC[C@@H]2C12SCCS2`: the TGI in the assay on 786-0 renal, with ACHN renal, with CCRF-CEM leukemia, in the assay with DMS 114 small cell lung, with EKVX NSCLC and with HCT-116 colon was > 100 µM each time. Further, the TGI in the assay with KM12 colon, with OVCAR-4 ovarian, with SK-MEL-28 melanoma and with SNB-75 CNS was > 100 µM in each case.
Take `c1ccc(SC(CCCCOC2CCCCO2)Sc2ccccc2)cc1` (centres undefined): the TGI in the assay on 786-0 renal was > 100 µM; in the assay on ACHN renal it was > 100 µM; with CCRF-CEM leukemia it was 93.1 µM; with DMS 114 small cell lung, > 100 µM; in the assay on EKVX NSCLC, > 100 µM; with HCT-116 colon, > 100 µM. Besides, the TGI with KM12 colon, with OVCAR-4 ovarian, with SK-MEL-28 melanoma and with SNB-75 CNS was > 100 µM throughout.
Turning to `COc1ccc2c(c1)CC1c3c(cc4c(c3-2)OCO4)CCN1C` (centres undefined), the TGI with 786-0 renal is > 100 µM; with ACHN renal it was 36.1 µM; in the assay with CCRF-CEM leukemia, > 100 µM; in the assay on DMS 114 small cell lung, 68.8 µM; in the assay on EKVX NSCLC, 81.5 µM; in the assay with HCT-116 colon, 70.6 µM. Further, the TGI in the assay with KM12 colon was > 100 µM; with OVCAR-4 ovarian, 52.2 µM; with SK-MEL-28 melanoma, 95.8 µM; in the assay on SNB-75 CNS, 56.9 µM.
In the case of `Cn1c(=O)c(C(=O)NC(=O)OCc2ccccc2)cn(CCSCCOC(=O)NCCCCCCNC(=O)OCCSCCn2cc(C(=O)NC(=O)OCc3ccccc3)c(=O)n(C)c2=O)c1=O`, the TGI in the assay on 786-0 renal, in the assay on ACHN renal, in the assay on CCRF-CEM leukemia, with DMS 114 small cell lung, with EKVX NSCLC and in the assay with HCT-116 colon was > 100 µM throughout. For the same compound, the TGI in the assay on OVCAR-4 ovarian was > 100 µM; with SK-MEL-28 melanoma it was > 100 µM; with SNB-75 CNS, 48.9 µM.
With `Clc1ccc(SCCCCCCCCCCSc2ccc(Cl)cc2)cc1`, the TGI with 786-0 renal was > 70.4 µM; in the assay with ACHN renal it was > 73.5 µM; in the assay with CCRF-CEM leukemia, > 100 µM; in the assay on DMS 114 small cell lung it was > 100 µM; in the assay with EKVX NSCLC it was > 96.6 µM; in the assay with HCT-116 colon it was > 100 µM. Moreover, the TGI is > 70.4 µM in the assay with KM12 colon, > 100 µM in the assay on OVCAR-4 ovarian, > 100 µM in the assay on SK-MEL-28 melanoma and > 100 µM with SNB-75 CNS.
Take `Cc1cc(=O)oc2cc(OCc3nc4ccccc4c(=O)[nH]3)ccc12`: the TGI with 786-0 renal, in the assay with ACHN renal, with CCRF-CEM leukemia, in the assay with DMS 114 small cell lung, with EKVX NSCLC and in the assay on HCT-116 colon was > 100 µM in each case. In addition, the TGI in the assay on KM12 colon, in the assay on OVCAR-4 ovarian, in the assay with SK-MEL-28 melanoma and in the assay on SNB-75 CNS was > 100 µM throughout.
On to `COc1cc(/C=C2/C(=O)NC(Cc3cc(OC)c(OC)c(C)c3OC)C(=O)N2Cc2ccccc2)c(OC)c(C)c1OC` (centres undefined), for which the TGI in the assay with 786-0 renal, in the assay with ACHN renal, in the assay with CCRF-CEM leukemia, with DMS 114 small cell lung, in the assay on EKVX NSCLC and with HCT-116 colon was > 100 µM throughout. Moreover, the TGI in the assay on KM12 colon, in the assay on OVCAR-4 ovarian, in the assay on SK-MEL-28 melanoma and with SNB-75 CNS was > 100 µM each time.
Turning to `CNc1nc(N(C)C)nc(N(C)C)n1`, the GI50 in the assay with 786-0 renal is > 100 µM and 2790 µM; in the assay on ACHN renal, > 100 µM and 1900 µM; in the assay with CCRF-CEM leukemia it was > 100 µM and 4060 µM; in the assay on DMS 114 small cell lung, > 100 µM and 527 µM; in the assay with EKVX NSCLC, > 100 µM and 2180 µM; with HCT-116 colon, > 100 µM and 809 µM. Moreover, the GI50 was > 100 µM and 1450 µM in the assay on KM12 colon; > 100 µM and 431 µM with OVCAR-4 ovarian; > 100 µM and 1240 µM with SK-MEL-28 melanoma; > 100 µM and 473 µM with SNB-75 CNS. For the same compound, the TGI is > 100 µM and 4840 µM in the assay on 786-0 renal; > 100 µM and 3610 µM with ACHN renal; > 100 µM and 6600 µM with CCRF-CEM leukemia; > 100 µM and 5500 µM with DMS 114 small cell lung; > 100 µM and 4800 µM in the assay on EKVX NSCLC; > 100 µM and 1930 µM with HCT-116 colon. Also, the TGI in the assay with KM12 colon is > 100 µM and 3420 µM; in the assay on OVCAR-4 ovarian it was > 100 µM and 1260 µM; in the assay on SK-MEL-28 melanoma, > 100 µM and 2700 µM; in the assay with SNB-75 CNS, > 100 µM and 1980 µM.
